We go through two compounds from patent US8883714B2, “Pharmaceutical compositions comprising GPR119 agonists which act as peptide YY (PYY) secretagogues” (Arena Pharmaceuticals, Inc., priority 2008, dated 2014).

Some results are limits rather than exact numbers.

In one data set the target is T1, human GPR119 receptor (Homo sapiens, UniProt Q8TDV5).
T1 construct: Full-Length Cloning of Endogenous Human GPR119; expressed in transfected cells; host or cells: HEK293 cells, transient transfection with Lipofectamine
T1 sequence (Q8TDV5 1-335): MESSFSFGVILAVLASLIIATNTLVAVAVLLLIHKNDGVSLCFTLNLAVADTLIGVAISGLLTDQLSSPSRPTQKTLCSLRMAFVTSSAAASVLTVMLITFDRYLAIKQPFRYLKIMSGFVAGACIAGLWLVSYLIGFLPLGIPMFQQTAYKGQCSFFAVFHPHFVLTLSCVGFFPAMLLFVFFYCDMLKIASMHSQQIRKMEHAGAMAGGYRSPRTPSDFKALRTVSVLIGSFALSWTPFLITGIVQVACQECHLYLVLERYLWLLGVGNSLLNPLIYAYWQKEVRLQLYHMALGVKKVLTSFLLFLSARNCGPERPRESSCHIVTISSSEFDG
The experiment in a line: cAMP assay (Flash Plate adenylyl cyclase kit) in GPR119-transfected HEK293 cells. The data set is classed as cell-based. The following applies: GPR119-transfected HEK293 cells vs empty vector; 60 min at room temperature; FIG. 2. As to the method:
Briefly, HEK293 cells were transfected with either empty vector DNA (“Vector”) or human GPR119 receptor expression plasmid DNA (“GPR119”) using Lipofectamine (Invitrogen, Carlsbad, Calif.). After 24 h, transfected cells were harvested in GIBCO (Gaithersburg, Md.) cell dissociation buffer (Catalog no. 13151-014) and resuspended in assay buffer (50% 1×PBS/50% stimulation buffer). Compound 1 was incubated with 10^5 cells per well for 60 min at room temperature. After another 2-h incubation with tracer in detection buffer, plates were counted in a Wallac (Gaithersburg, Md.) MicroBeta scintillation counter. Values of cAMP per well were extrapolated from a standard cAMP curve that was included on each assay plate.

The subject of data set [1] is plasma total PYY. The experiment in a line: Effect of oral GPR119 agonist on plasma total PYY in wild-type mice (PYY EIA kit). The data set is classed as in vivo, C57BL/6 male mice. The following applies: 10 mg/kg per orally; fasted 18 h; glucose bolus 3 g/kg 30 min after treatment; blood at 0, 2, 5, 10 min; FIG. 3. As to the method:
C57BL/6 male mice (approximately 8 weeks of age; obtained from Harlan, Indianapolis, Ind.) were fasted for 18 hours, and randomly assigned into eight groups with n=6 for each group. Mice were administered per orally with vehicle (80% polyethylene glycol 400/10% Tween 80/10% ethanol) or with a GPR119 agonist (Compound 1; (2-Fluoro-4-methanesulfonyl-phenyl)-{6-[4-(3-isopropyl-[1,2,4]oxadiazol-5-yl)-piperidin-1-yl]-5-nitro-pyrimidin-4-yl}-amine) at 10 mg/kg, as indicated in FIG. 3. Thirty minutes after treatment, a glucose bolus at 3 g/kg was delivered per orally, and blood was collected at 0 minute (no glucose bolus), 2 minutes, 5 minutes, and 10 minutes after glucose bolus. Plasma total PYY (inclusive of PYY1-36 and PYY3-36) levels were determined by using a PYY EIA kit purchased from Phoenix Pharmaceuticals, Inc. (Peptide YY (PYY) (Rat, Mouse, Porcine, Canine) EIA kit, Catalog No. EK-059-03) according to instructions provided in the kit. […] From the results shown in FIG. 3, it is apparent that the GPR119 agonist (Compound 1) stimulated plasma total PYY in the mice. Compound 1 is identical to a compound disclosed in International Patent Application No. PCT/US2004/001267 (published as WO 2004/065380).

Data set [2] relates to plasma total PYY. The data set can be described thus: Effect of oral GPR119 agonist on plasma total PYY in wild-type littermates (paper example). The following applies: 20 mg/kg per orally; glucose bolus 3 g/kg; blood at 0 and 5 min. The data set is classed as in vivo, wild-type mice. How it is done: (§1) GPR119-deficient male mice (Chu et al, Endocrinology (2007) 148:2601-2609) and wild-type littermates are fasted for 18 hours. Mice are administered per orally with vehicle (80% polyethylene glycol 400/10% ethanol/10% Tween 80) or with a GPR119 agonist in accordance with the present invention (Compound 1; (2-Fluoro-4-methanesulfonyl-phenyl)-{6-[4-(3-isopropyl-[1,2,4]oxadiazol-5-yl)-piperidin-1-yl]-5-nitro-pyrimidin-4-yl}-amine) at 20 mg/kg. Thirty minutes after treatment, blood (100 microliter) is collected via retro orbital vein of the eye (time 0 minutes) followed by a glucose bolus at 3 g/kg (per orally). Five minutes after delivering glucose, another blood sample (100 microliter) is collected (time 5 minutes). Plasma are collected after centrifugation and plasma total PYY levels are determined by using PYY EIA kit purchased from Phoenix Pharmaceuticals, Inc. (Peptide YY (PYY) (Rat, Mouse, Porcine, Canine) EIA kit, Catalog No. EK-059-03) according to instructions provided in the kit. It can be further shown that functional GPR119 receptor is necessary for the administered GPR119 agonist to increase plasma total PYY in the mice. […] Compound 1 is identical to a compound disclosed in International Patent Application No. PCT/US2004/001267 (published as WO 2004/065380).

Data set [3] relates to plasma total PYY. The experiment in a line: Effect of oral GPR119 agonist on plasma total PYY in GPR119-deficient (knockout) mice (paper example). The class given is in vivo, GPR119-deficient male mice. The following applies: 20 mg/kg per orally; glucose bolus 3 g/kg; blood at 0 and 5 min. As to the method: as §1
The conditions of data set [4]: humans, cited from earlier work.

For the compound `CC(C)c1noc(C2CCN(c3ncnc(Nc4ccc(S(C)(=O)=O)cc4F)c3[N+](=O)[O-])CC2)n1` [Compound 1, (2-Fluoro-4-methanesulfonyl-phenyl)-{6-[4-(3-isopropyl-[1,2,4]oxadiazol-5-yl)-piperidin-1-yl]-5-nitro-pyrimidin-4-yl}-amine], the “agonist activity at GPR119 receptor (stimulation of cAMP accumulation)” value at human GPR119 receptor is given as “agonist of GPR119 receptor”. Moreover, the “effect on plasma total PYY (inclusive of PYY1-36 and PYY3-36)” value in the data set with plasma total PYY [1] is recorded as “increased plasma total PYY”. The “effect on plasma total PYY in wild-type mice” value with plasma total PYY [2] is given as “stimulate plasma total PYY in the wild-type mice”. The “effect on plasma total PYY in GPR119-deficient mice” value in the data set with plasma total PYY [3] is listed as “not in the GPR119-deficient mice”.

Regarding “PYY3-36: generated from PYY1-36 by cleavage of the N-terminal Tyr and Pro residues by dipeptidyl peptidase IV; high-affinity Y2R selective agonist”, the “time of decline of serum PYY3-36 to basal levels” value in data set [4] (after infusion) is no more than 30 min. The “time to peak serum levels of PYY3-36” value in data set [4] (infusion to reach normal postprandial circulatory concentrations) was no more than 15 min. In addition, the “reduction of food intake” value in data set [4] (infusion, over 24 hours) is 33%.
